The source of these data is ChEMBL document CHEMBL4837225, “Water-soluble derivatives of evodiamine: Discovery of evodiamine-10-phosphate as an orally active antitumor lead compound” (Eur J Med Chem, 2021).

Data set [1] is described as follows: Solubility of the compound in double distilled water. It is filed as physicochemical.
Data set [2] is described as follows: Half life in mouse liver microsomes. Format: ADME, Microsome.
In data set [3] the test system is HCT-116. Nature of the data set: Antitumor activity against human HCT-116 cells xenografted in BALB/c nude mouse assessed as inhibition of tumor growth at 60 mg/kg, po BID administered for 21 days measured by caliper relative to control. It is filed as functional. The settings on record: HCT-116, po, 504 h, time 21 day, read-out: TGI. (In general: A xenograft is tissue or cells of one species grown in another, often human tumour cells in immunodeficient mice.)

The subject of a further data set is A549. Kind of data set: Antitumor activity against human A549 cells xenografted in BALB/c nude mouse assessed as inhibition of tumor growth at 150 mg/kg, po BID for 14 days relative to control. Format: functional. To be noted: 336 h, time 14 day, read-out: TGI.
Data set [4] in a line: Toxicity in BALB/c nude mouse xenografted with human A549 cells assessed as morphological changes in kidney at 150 mg/kg, po bid by H&E staining based light microscopic analysis. Format: organism-based. The settings on record: in vivo.
The nature of data set [5]: Toxicity in BALB/c nude mouse xenografted with human A549 cells assessed as morphological changes in liver at 150 mg/kg, po bid by H&E staining based light microscopic analysis. It is filed as organism-based. To be noted: in vivo.
The test system of data set [6] is HCT-116. Kind of data set: Antitumor activity against human HCT-116 cells xenografted in BALB/c nude mouse assessed as necrosis at 150 mg/kg, po bid by H&E staining based light microscopic analysis. It is filed as functional, organism-based.
Data set [7] concerns HCT-116. Kind of data set: Induction of apoptosis in human HCT-116 cells assessed as early apoptotic cells level at 0.1 uM incubated for 48 hrs by annexin V-FITC/propidium iodide staining based flow cytometry (reference value: 2.02%). Format: functional.
Data set [8] relates to HCT-116. Nature of the data set: Induction of apoptosis in human HCT-116 cells assessed as increase in ratio of Bax to Bcl2 level at 0.2 to 5 uM measured after 24 hrs by Western blot analysis. Format: functional, cell-based. The settings on record: dose 0.2-5 µM.
For data set [9], the system named is HCT-116. Nature of the data set: Cell cycle arrest in human HCT-116 cells assessed as accumulation at G2 phase at 0.5 uM incubated for 24 hrs by propidium iodide staining based flow cytometric analysis (Rvb =20 %). Format: functional. On the technique in general: In flow cytometry, cells or beads pass a laser one at a time.
A further data set has as its target Tubulin. Kind of data set: Inhibition of tubulin polymerization (unknown origin). Format: protein-complex assay, Homo sapiens.

Each structure is given as a SMILES string. ≈ marks a conversion by molar mass, not a printed value. Calls of active or inactive are those of the source. No cut-off for these calls is given here.

The solubility is the concentration that dissolves in the medium under given conditions. Broadly, the half-life is how long it takes for the measured level to halve. Low readings indicate fast loss, high ones slow loss. Usually IC50 stands for the concentration needed to halve the response being measured. A low value points to higher potency. With `CN1c2ccccc2C(=O)N2CCc3c([nH]c4ccc(OP(=O)(O)O)cc34)C21` (stereo unspecified), the concentration in solution in [1] (solubility) was 36 µg/mL (≈ 90.1 µM). The half-life in data set [2] stood at 58.4 min. Besides, the inhibition in vivo at 60 mg/kg with HCT-116 [3] was determined as 48%. The inhibition in vivo at 150 mg/kg in the data set with A549 was determined as 59%. Also, the Activity result was “Non-Toxic” in data set [4], “Non-Toxic” in [5], 38.55% with HCT-116 [7] and 65.3% with HCT-116 [9]. Further, the outcome with HCT-116 [6] and in the data set on HCT-116 [8] was Active. The molecule also displayed an IC50 on Tubulin of 31.6 µM.
